Data taken from patent US11203753B2, “Hepcidin antagonists for use in the treatment of inflammation” (INSERM (INSTITUT NATIONAL DE LA SANTE ET DE LA RECHERCHE …, priority 2015, dated 2021).

Key:
NF-kB pathway = assay: Hepcidin-induced expression of CXCL1 and TNF-α in macrophages with pathway inhibitors; assay type: cell-based, mouse
Source text: Moreover, MyD88, a canonical adaptor for inflammatory signaling pathway, but not TLR4, was required for the hepcidin-triggered induction of CXCL1 and TNF-α. Indeed, macrophages isolated from TLR4−/− but not MyD88−/− mice were still able to mount an inflammatory response after addition of hepcidin.

Cxcr2 = target: T1, Cxcr2 (Mus musculus, UniProt P35343); assay: Neutrophil migration towards hepcidin in presence of Cxcr2 inhibitor; assay type: cell-based; details: hepcidin 1 μg/ml
T1 construct: Migration of WT bone marrow isolated neutrophils in response to hepcidin (1 μg/ml); endogenous in cells; host or cells: primary neutrophils isolated from bone marrow of WT mice (mixed C57BL6/129SV background)
T1 sequence (P35343 1-359): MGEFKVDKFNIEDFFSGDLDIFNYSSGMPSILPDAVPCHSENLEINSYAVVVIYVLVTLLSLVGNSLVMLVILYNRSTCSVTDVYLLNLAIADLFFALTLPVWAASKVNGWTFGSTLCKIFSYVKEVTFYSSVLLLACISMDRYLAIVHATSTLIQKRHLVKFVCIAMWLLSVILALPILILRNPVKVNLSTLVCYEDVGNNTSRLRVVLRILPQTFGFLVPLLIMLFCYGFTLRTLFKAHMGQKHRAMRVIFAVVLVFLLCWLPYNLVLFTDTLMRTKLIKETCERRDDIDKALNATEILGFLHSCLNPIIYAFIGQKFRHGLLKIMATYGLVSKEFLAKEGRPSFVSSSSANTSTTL
Method: Migration of WT bone marrow isolated neutrophils in response to hepcidin (1 μg/ml) in presence or not of the Cxcr2 inhibitor (sb225002, Sigma-Aldrich). n=3. mean+/−s.e.m.
(§1) Neutrophil migration was assessed using transwell (3 μm; BD-Falcon) coated with 10 μg/ml fibronectin (# F1141, Sigma-Aldrich). The cells (5×10^5/well) were diluted in 700 μL DMEM+10% SVF and migration towards hepcidin (Peptide International) in the bottom well was allowed for 2 hours at 37° C. The resulting migrated cells recovered from the bottom well were counted using hemocytometer.

hepcidin expression = assay: Hepcidin expression (Q-PCR) in mouse intestine and liver 7 h after ip injection of TLR agonists; assay type: in vivo; details: WT mice
Method: Mice were ip injected with LPS (from E. coli O111:B4; 2 mg/kg), Zymosan A (from Saccharomyces cerevisiae, Sigma-Aldrich Z4250; 250 mg/kg), Poly:IC (Polyinosinic-polycytidylic acid sodium salt, Sigma-Aldrich P0913; 12.5 mg/kg), Flagellin (FLA-ST from Salmonella Typhimirium, InvivoGen, #12B06-MM; 1.5 mg/kg) or with a sterile saline solution (PBS) and sacrificed 7 hours later.
(§2) RNA extraction, reverse transcription, quantitative PCR and sequences of the primers used have been previously described^8. All samples were normalized to the threshold cycle value for cyclophilin-A.

macrophages [1] = assay: Inflammatory gene expression (Q-PCR) in macrophages incubated with hepcidin-25; assay type: cell-based, mouse
Method: a, Flow cytometry analysis of neutrophils in lamina propria of WT and KO mice. Left: Representative experiment with Ly6G^+ Ly6C^low cells shown after gating on CD45^+CD11b^+ cells; Right: pool of four experiments (mean+/−s.e.m; *p<0.05). b, Migration of WT bone marrow isolated neutrophils in response to hepcidin-25. (3 experiments performed in triplicate; mean+/−s.e.m; *p<0.05). c, CXCL1, CXCL2, IL-1beta, iNOS mRNA levels in macrophages incubated for 1 or 3 hours with 1 μg/ml, 10 μg/ml Hepcidin-25 or PBS (control). d, Immunohistochemistry using anti-mouse iNOS antibody on intestine of WT and Hepc^Δint mice upon PBS or LPS injection.
The gastrointestinal tract contains the largest reservoir of macrophages in the organism^17. Besides its proper chemoattractant property, the inventors hypothesized that hepcidin may influence the production of chemokines by the macrophages. Macrophages were incubated with hepcidin-25 at different time points (30 min, 1 h, 3 h, 24 h, 48 h).
as §2

macrophages [2] = assay: CXCL1 and TNF-α protein accumulation by macrophages following hepcidin treatment; assay type: cell-based, mouse; details: at 7 hours
Method: Kinetic response of macrophage-derived CXCL1 and TNF-α following hepcidin treatment was further determined. […] Massive protein accumulation of CXCL1 and TNF-α reached respectively 300 and 150 pg/ml at 7 hours (Data not shown). Hepcidin stimulated IL-1beta, IL-6 and iNOS expression with a maximal induction at 3 hours with 10 μg/ml hepcidin (FIG. 2c) while the peak of TNF-alpha and Cox-2 expression occurred after 1 hour of hepcidin treatment. AMPs, such as LL37, typically function in this high concentration range^18,19 to induce proinflammatory molecules^20,21. This allows the production of inflammatory mediators in pathological conditions where AMPs concentrations can reach high values^18,19 and not in healthy tissues where inflammatory damage might otherwise harm host cells.

[3] = test system: WT bone marrow isolated neutrophils; assay: Neutrophil migration assay (transwell) towards hepcidin; assay type: cell-based, mouse
Method: Bone marrows from WT mice were flushed from femurs and tibias with PBS using a 25 G needle. Tissues were homogenized through a 18 G needle and the suspension was passed through 70 μm and 40 μm cell strainers. Cells were centrifuged at 400 g for 10 min and resuspended in cold MACS buffer (PBS, BSA 0.5%, EDTA 2 mM, pH 7.4). After counting, cells were incubated on ice with FcBlock™ for 10 min, anti-Ly6C for 15 min and anti-biotin antibody microbeads for 15 min, following the manufacturer's instructions. Cells were washed with MACS buffer and centrifuged at 400 g for 10 min. Neutrophils were immuno-magnetically separated following filtration of the cell suspension through an LS column (Miltenyi) according to manufacturer's instructions.
as §1

[4] = test system: Caco-2 intestinal cell line; assay: Addition of synthetic mature hepcidin to Caco-2 intestinal cell line; assay type: cell-based; details: basolateral or apical side
[5] = test system: Raw 264.7 (ATCC TIB-71) murine macrophage cell line; assay: CXCL2 and TNF-α expression (Q-PCR) in serum starved Raw 264.7 macrophages with Hepc-25; assay type: cell-based
Method: FIG. 9: Serum starvation enhances the proinflammatory action of Hepc-25 in macrophages. Expression by Q-PCR of CXCL2 and TNF-α in Raw 264.7 (ATCC® TIB-71™) murine macrophage cell line serum starved or not for 1 hour before the addition of 10 μg/ml of Hepc-25 (Peptide International) for an additional hour. N=3 per group; mean+/−s.e.m. Statistical analysis by a two-way analysis of variance (ANOVA) followed by a Bonferroni posttest. **p<0.01; ***p<0.001.
Expression by Q-PCR of CXCL2 in Raw 264.7 (ATCC® TIB-71™) murine macrophage cell line serum starved for 1 hour or not before the addition of 1 or 10 μg/ml of Hepc-25 (Peptide International) for an additional hour. N=3 per group; mean+/−s.e.m. Statistical analysis by a two-way analysis of variance (ANOVA) followed by a Bonferroni posttest. **p<0.01; ****p<0.0001.

Molecule: Cc1ccc(S(=O)(=O)/C=C/C#N)cc1 [BAY 7082]
- hepcidin-induced expression of CXCL1 and TNF-α (NF-kB pathway): strongly blunted

Molecule: CC(C)(C)c1ccc(S(=O)(=O)/C=C/C#N)cc1 [BAY 7085]
- hepcidin-induced expression of CXCL1 and TNF-α (NF-kB pathway): strongly blunted

Molecule: O=C(Nc1ccc([N+](=O)[O-])cc1O)Nc1ccccc1Br [sb225002]
- neutrophil migration towards hepcidin (Cxcr2): prevents neutrophil migration

Molecule: Polyinosinic-polycytidylic acid sodium salt [poly:IC]
- hepcidin expression in the intestine (hepcidin expression): induced

Molecule: hepcidin: synthetic mature 25 amino acid hepcidin peptide (Peptide International)
- expression of the iron-responsive gene TfR1 (macrophages [1]): unchanged
- time of peak of TNF-alpha and Cox-2 expression (macrophages [1]): 1 h
- time of peak of transient CXCL1 and TNF-α mRNA induction (macrophages [1]): 1 h
- expression of CXCL-1 and CXCL2 (macrophages [1]; 1 μg/ml hepcidin, 1 hour): slightly increased
- time of maximal induction of IL-1beta, IL-6 and iNOS expression (macrophages [1]; 10 μg/ml hepcidin): 3 h
- expression of CXCL-1 and CXCL2 (macrophages [1]; 10 μg/ml hepcidin, 1 hour): maximally induced
- fold change of genes statistically induced (TNF-α, CXCL1, CXCL2, NF-kappa-B inhibitor zeta, Mir-146) (macrophages [1]; 1 hour): > 2
- CXCL1 protein accumulation (macrophages [2]): 300 pg/mL
- TNF-α protein accumulation (macrophages [2]): 150 pg/mL
- migration of neutrophils ([3]; bimodal dose response): induced a dose-dependent migration of neutrophils
- dose of peak response of neutrophil migration ([3]; migration 2 hours at 37° C.): 0.1 µg/mL
- iNOS expression [4]: did not induce
- expression of Cxcl2 ([5]; 1 μg/ml, serum starvation 1 hour, 1 additional hour): robust expression
- stimulatory effect on macrophage-mediated cytokine release ([5]; serum-free conditions versus not starved): clearly enhanced

B1: flagellin: FLA-ST from Salmonella Typhimirium, agonist of TLR5 (protein, UniProt P06179 2-495, looked up)
Flagellin: AQVINTNSLSLLTQNNLNKSQSALGTAIERLSSGLRINSAKDDAAGQAIANRFTANIKGLTQASRNANDGISIAQTTEGALNEINNNLQRVRELAVQSANSTNSQSDLDSIQAEITQRLNEIDRVSGQTQFNGVKVLAQDNTLTIQVGANDGETIDIDLKQINSQTLGLDTLNVQQKYKVSDTAATVTGYADTTIALDNSTFKASATGLGGTDQKIDGDLKFDDTTGKYYAKVTVTGGTGKDGYYEVSVDKTNGEVTLAGGATSPLTGGLPATATEDVKNVQVANADLTEAKAALTAAGVTGTASVVKMSYTDNNGKTIDGGLAVKVGDDYYSATQNKDGSISINTTKYTADDGTSKTALNKLGGADGKTEVVSIGGKTYAASKAEGHNFKAQPDLAEAAATTTENPLQKIDAALAQVDTLRSDLGAVQNRFNSAITNLGNTVNNLTSARSRIEDSDYATEVSNMSRAQILQQAGTSVLAQANQVPQNVLSLLR
- hepcidin expression in the intestine (hepcidin expression): induced
